{"source": "patent US9969762B2", "key": {"[1]": {"system": "Agrobacterium tumefaciens", "assay": "Antibacterial activity (MIC and MBC) in TY medium", "type": "cell-based", "conditions": "36 h of culture at 30° C."}, "[2]": {"system": "Pectobacterium atrosepticum", "assay": "Antibacterial activity (MIC and MBC) in TY medium", "type": "cell-based", "conditions": "36 h of culture at 30° C."}, "[3]": {"system": "Phytophthora infestans", "assay": "microbe, parasite or virus in culture", "type": "cell-based", "conditions": "Phytophthora infestans, 144 h, read-out: Average diameters of inhibition zone"}, "[4]": {"system": "Fusarium sambucinum", "conditions": "compound in methanol, more than 10 days at 20° C.", "method": "(§1) The antifungal activity of the N-alkyl-glycosyl(di)amine derivatives of formula (I) and of the N-alkyl-glycamine derivatives of formula (III) synthesized according to the process of the invention was evaluated on two fungi: Fusarium roseum and Fusarium sambucinum.\n(§2) For this, 500 μl of solution comprising the test derivative, dissolved in DMSO or methanol, are mixed with 19.5 ml of malt agar medium (Sigma aldrich) allowing the growth of these two Fusarium isolates. The test derivative is prepared in 2 ml of methanol, then mixed with 18 ml of malt agar medium (Sigma aldrich). A spot of 10 μl of culture of each Fusarium is then deposited at the center of each Petri dish. After 10 days of incubation at 20° C., the growth diameters are measured.\n(§3) The range of concentrations of N-alkyl-glycosyl(di)amine derivatives of formula (I) tested ranges from 0.1 to 25 μmol/ml.\n(§4) The Fusarium growth on media containing the various molecules is compared with that obtained only with DMSO or methanol.\n(§5) The same antifungal evaluation protocol as the one previously described with the compound Ij was applied for other N-alkyl-glycosyl(di)amine derivatives of formula (I) and N-alkyl-glycamine derivatives of formula (III) at concentrations ranging from 1 to 20 μmol/ml.\n(§6) 2 ml of solution comprising the test compound dissolved in methanol are mixed with 18 ml of agar malt medium (Sigma aldrich) allowing the growth of these two Fusarium isolates. A spot of 10 μl of culture of each Fusarium is then deposited at the center of each Petri dish. After more than 10 days of incubation at 20° C., the growth diameters are measured."}, "[5]": {"system": "Fusarium roseum", "conditions": "compound in methanol, more than 10 days at 20° C.", "method": "as §1, §2, §3, §4, §5, §6"}, "[6]": {"system": "Dickeya dianthicola", "assay": "Antibacterial activity (MIC and MBC) in TY medium", "type": "cell-based", "conditions": "Dickeya dianthicola, 36 h of culture at 30° C."}, "[7]": {"system": "Agrobacterium tumefaciens, Pectobacterium atrosepticum and Dickeya dianthicola bacteria", "assay": "Antibacterial activity, summary statements over the bacteria tested", "type": "cell-based"}}, "note": "Where two headings read alike, the source gives them in different places."}
{"compound": "CCCCCNC1OC(C)[C@H](O)C(O)C1O", "note": "(stereo partly shown) [compound Ie]", "values": [{"measurement": "MIC", "setting": "[1]; TY medium", "result": 4, "unit": "µg/mL"}, {"measurement": "MBC", "setting": "[1]; plated on TY agar", "result": 8, "unit": "µg/mL"}, {"measurement": "MIC", "setting": "[2]; TY medium", "result": 16, "unit": "µg/mL"}, {"measurement": "MBC", "setting": "[2]; plated on TY agar", "result": 16, "unit": "µg/mL"}, {"measurement": "zone of inhibition at 20000 µg/disc", "setting": "[3]", "result": 21, "unit": "mm"}, {"measurement": "Inhibition of the growth of the Fusarium sambucinum fungi", "setting": "[4]; 1 μmol/ml", "result": 95, "unit": "%"}, {"measurement": "Inhibition of the growth of the Fusarium sambucinum fungi", "setting": "[4]; 2.5 μmol/ml", "result": 96, "unit": "%"}, {"measurement": "Inhibition of the growth of the Fusarium sambucinum fungi", "setting": "[4]; 5 μmol/ml", "result": 100, "unit": "%"}, {"measurement": "Inhibition of the growth of the Fusarium sambucinum fungi", "setting": "[4]; 10 μmol/ml", "result": 100, "unit": "%"}, {"measurement": "Inhibition of the growth of the Fusarium sambucinum fungi", "setting": "[4]; 20 μmol/ml", "result": 100, "unit": "%"}, {"measurement": "Inhibition of the growth of the Fusarium roseum fungi", "setting": "[5]; 1 μmol/ml", "result": 94, "unit": "%"}, {"measurement": "Inhibition of the growth of the Fusarium roseum fungi", "setting": "[5]; 2.5 μmol/ml", "result": 96, "unit": "%"}, {"measurement": "Inhibition of the growth of the Fusarium roseum fungi", "setting": "[5]; 5 μmol/ml", "result": 100, "unit": "%"}, {"measurement": "Inhibition of the growth of the Fusarium roseum fungi", "setting": "[5]; 10 μmol/ml", "result": 100, "unit": "%"}, {"measurement": "Inhibition of the growth of the Fusarium roseum fungi", "setting": "[5]; 20 μmol/ml", "result": 100, "unit": "%"}, {"measurement": "MIC", "setting": "[6]; TY medium, read-out: MIC", "result": 16, "unit": "µg/mL"}, {"measurement": "MBC", "setting": "[6]; plated on TY agar, read-out: MBC", "result": 16, "unit": "µg/mL"}, {"measurement": "bactericidal activity (in words)", "setting": "[7]", "result": "showed a bactericidal activity"}, {"measurement": "inhibition of the growth of the bacteria (in words)", "setting": "[7]; after 36 h of incubation at 30° C., compared with 4-NPO", "result": "inhibition of the growth of the bacteria was observed"}]}
